pIC50: −log10 of the molar value. ≈ marks a conversion by molar mass, not a printed value. Like-named read-outs stand apart in the source and are kept apart here.

For one assay, the system named is C. acnes (ATCC No. 6919). The assay can be described thus: Growth inhibition of C. acnes in Fluid Thioglycollate culture tubes. Conditions: for MIC: Cutibacterium acnes, read-out: Inhibitory Concentration at 72 Hours; for Effect on growth of C. acnes: at 200 μg/ml. The assay is classed as cell-based, Corynebacterium acnes. The protocol: Culture tubes are prepared containing 10 ml. of freshly prepared Difco Fluid Thioglycollate medium with agar and indicator. […] Each tube is inoculated with 0.2 ml. of a 48 hour culture of C. acnes (ATCC No. 6919), and the tubes are inspected at 24 hour intervals. Incubation at 37° C.

Assay [1] can be described thus: Double-blind crossover study of 5% oleic acid diethanolamide gel on the face, forehead surface lipids. The assay is classed as in vivo, human subjects. From the text:
The subjects were selected on the basis of having a higher than 20 % free fatty acid content in their individual total sebum. None were on systemic antibiotic therapy during the course of this study.
The subjects were instructed to wash three times daily with Ivory soap, immediately after rinsing and drying the face to apply sufficient medication (active agent or placebo) to cover the entire face with the exception of the eye and cheekbone areas, and to gently massage the medication into the skin. Each treatment was continued for the last 6 weeks of the study, no medication being used, however, during the two-week no-treatment period. No other therapy was permitted on the face during the course of the study. No medicated soaps or shampoos, oily hair dressings or any hair sprays were permitted. Cosmetics other than lipstick and eyeshadow were not to be applied on the days of sebum collection. On days of sebum collection, the forehead was not to be washed, wiped, or touched in the 6 hours between the time of cleansing and the time of sebum collection.
Twice a week during the first two weeks of the study, a forehead sample of surface lipids were obtained from each subject and measured for total weight and free fatty acids. No medication or placebo therapy was employed during this two-week period. These samples from each subject constitute the baseline data for this study. Twice a week for the next 6 weeks, further surface lipid samples were taken from each subject and analyzed. In all cases, the surface lipid samples were collected by drawing sebum from both the left and right sides of the subject's forehead.

Assay [2] concerns the target T1, crude enzyme from cultures of Corynebacterium acnes (ATCC No. 6919) (lipolytic enzymes) (Cutibacterium acnes, UniProt Q59644).
T1 construct: crude ethanol-acetic acid precipitate of three-day cultures, Sephadex G-25 and G-100 fractions
The assay can be described thus: Inhibition of triolein hydrolysis by Corynebacterium acnes lipolytic enzyme (radiolabelled triolein, TLC of free oleic acid). The assay is classed as biochemical. The following applies: 60 minutes at room temperature, pH 7.1 phosphate buffer, triolein 2mM; read-out: Concentration Causing 50% Inhibition of Triolein (2mM) Hydrolysis. The procedure: A 1 ml. aliquot of glyceryl trioleate-(9,10)T is separated on TLC (silica gel) in hexane-ether-acetic acid (70:30:1) and the area corresponding to pure triolein is eluted. The radioactive material is diluted with cold, previously purified triolein (8.8639 g.) in 500 ml. of benzene. The resulting solution is 20mM in triolein.
The crude enzyme prepared by ethanol-acetic acid precipitation from three day cultures of Corynebacterium acnes (ATCC No. 6919) is passed successively through Sephadex G-25 and G-100 columns, and the concentrate is diluted to 250 ml. for use in the assay described below.
An emulsion is prepared by evaporating 5.70 ml. of the benzene solution, prepared in Example 1 above; 6 ml. of 10% gum arabic in water and 3.4 ml. of 0.05M phosphate buffer (pH 7.1) are added, and the mixture is sonicated for three 20 second intervals. Aliquots (0.7 ml.) containing […] emulsified triolein are added to each of 10 1/6 dram vials for each compound to be assayed.
Vial No. 1 receives an additional 0.3 ml. buffer at time 0, and acts as 0 control. […]
The hydrolysis is allowed to proceed for 60 minutes at room temperature, after which time, the vials are transferred to a silicone oil bath and maintained at 95° C. […] The areas corresponding to free oleic acid (after visualization with iodine vapor) are scraped directly into scintillation vials and counted. […]

The mark [3] stands for this setting: ATCC6919, 72 hours, 37° C., Difco Fluid Thioglycollate medium.
Where [4] appears, read: 5% gel of Example 8, topical three times daily, two-week treatment, 21 subjects.

T1 sequence (Q59644 entry or part of it): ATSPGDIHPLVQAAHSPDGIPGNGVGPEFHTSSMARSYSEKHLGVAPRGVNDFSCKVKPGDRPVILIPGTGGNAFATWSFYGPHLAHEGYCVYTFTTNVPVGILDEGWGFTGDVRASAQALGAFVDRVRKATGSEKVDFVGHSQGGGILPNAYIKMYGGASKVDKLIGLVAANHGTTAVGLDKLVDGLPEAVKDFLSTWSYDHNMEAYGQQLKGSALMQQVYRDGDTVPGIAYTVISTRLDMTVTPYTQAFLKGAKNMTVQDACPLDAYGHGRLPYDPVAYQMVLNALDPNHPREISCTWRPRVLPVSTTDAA

For `CC(C)CCCCCCCCCCCCCCC(=O)N(CCO)CCO` [Isostearic acid diethanolamide], the MIC in the assay with C. acnes (ATCC No. 6919) (setting [3]) was ~12.5 mg/L (≈ 33.6 µM). On to `CCCCCCCCCCCC(=O)N(CCO)CCO` [Lauric acid diethanolamide], for which the MIC with C. acnes (ATCC No. 6919) (ATCC6919, 72 h) was ~12.5 mg/L (≈ 43.5 µM). For the molecule `CCCCCCCCCCCCCC(=O)N(CCO)CCO` [Myristic acid diethanolamide], in the assay on C. acnes (ATCC No. 6919) (setting [3]), the MIC is ~6.25 mg/L (≈ 19.8 µM). With `CCCCCCCC/C=C\CCCCCCCC(=O)N(CCO)CCO` [Oleic acid diethanolamide], in the assay on C. acnes (ATCC No. 6919) (setting [3]), the MIC was ~12.5 mg/L (≈ 33.8 µM). In assay [1] (setting [4]), the “free fatty acid values, average lowering versus placebo” value turned out to be 11% and the “total sebum values, average lowering versus placebo” value is 8%. Besides, the “carryover effect upon total sebum level” value in assay [1] (5% gel, crossover study) is given as “no indication of a carryover effect”. Besides, the “overall reduction of average free fatty acid content, end of active treatment versus immediately prior to treatment” value in assay [1] (5% gel, two-week treatment) is listed as “approximately 20%”. Besides, the “Maximum reduction in free fatty acid levels, subject two” value in assay [1] (5% gel, two-week treatment, subject two) is listed as 78%. In addition, in assay [1] (subjects given active agent before placebo), the “duration of carryover effect upon free fatty acid levels after termination of use” value is given as “at least two weeks”. In the case of `CCCCCCCC/C=C\CCCCCCCC(=O)O` [Oleic acid, reference compound], the “Effect on growth of C. acnes” value with C. acnes (ATCC No. 6919) (72 hours) is given as “growth stimulatory”. With `CCCCCCCCCCCCCCCC(=O)N(CCO)CCO` [Palmitic acid diethanolamide], in the assay with C. acnes (ATCC No. 6919) (setting [3]), the MIC was ~6.25 mg/L (≈ 18.2 µM). As to `CCCCCCCC/C=C\CCCCCCCC(=O)OCC(COC(=O)CCCCCCC/C=C\CCCCCCCC)OC(=O)CCCCCCC/C=C\CCCCCCCC` [Triolein, reference compound], the “Effect on growth of C. acnes” value in the assay with C. acnes (ATCC No. 6919) (72 hours) is listed as “growth stimulatory”. For `C=CCCCCCCCCC(=O)N(CCO)CCO` [Undecylenic diethanolamide, reference compound], the MIC with C. acnes (ATCC No. 6919) (setting [3]) was > 300 mg/L. Take N-morpholinooleamide: the pIC50 in assay [2] was 3.15.

Source of the values: patent US3987198A, “Method for lowering the free fatty acid content in sebum using certain fatty acid amides” (Syntex (U.S.A.) Inc., priority 1975, dated 1976).
